Series [1] has as its system CD-1 mice. The experiment in a line: Antinociception after i.p. administration, 55 °C tail withdrawal. Type of series: in vivo, mouse. To be noted: for Antinociceptive effect after i.p. injection, in words: Figure 3; for Antinociceptive activity, times higher than the antinociception of morphine: at the plateau decline phase; for Time of maximum antinociceptive activity post i.p. injection: mice.

In series [2] the target is T1, MOR (Rattus norvegicus, UniProt P33535). The experiment in a line: MOR receptor binding, displacement of [3H]DAMGO from rat brain membranes. To be noted: ratio of MOR/DOR/KOR Ki.
T1 sequence (P33535 whole entry): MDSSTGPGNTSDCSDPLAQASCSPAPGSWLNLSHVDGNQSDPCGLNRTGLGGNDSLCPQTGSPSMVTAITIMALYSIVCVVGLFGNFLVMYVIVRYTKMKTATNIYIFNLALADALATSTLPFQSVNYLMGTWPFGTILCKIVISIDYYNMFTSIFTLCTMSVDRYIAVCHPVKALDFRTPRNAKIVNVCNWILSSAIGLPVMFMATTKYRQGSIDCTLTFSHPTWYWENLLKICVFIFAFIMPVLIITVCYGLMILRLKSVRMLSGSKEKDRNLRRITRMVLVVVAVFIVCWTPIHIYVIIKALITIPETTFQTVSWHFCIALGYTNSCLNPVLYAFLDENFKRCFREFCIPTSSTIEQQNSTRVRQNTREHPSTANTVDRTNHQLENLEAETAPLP
The test system of series [3] is CD-1 mice. The experiment in a line: Antinociception after s.c. administration, radiant heat tail-flick test. The settings on record: mouse tail-flick test; for ED50 (95% confidence limits): at the time of peak effect. Type of series: in vivo.
The test system of series [4] is mouse tissues (spleen, liver, lungs, heart, kidneys, serum). The experiment in a line: In vivo tissue biodistribution of [125I]-peptides. To be noted: for Serum levels: 15 min after administration, rank in words.
Series [5] has as its system mouse brain (blood-brain barrier). Description: Blood-to-brain influx, multiple time regression of [125I]-peptides. The settings on record: for Vbr (brain distribution volume): [125I]-labelled, CD-1 mice, mean ± SEM.
For series [6] the following is noted: cited from earlier work.
Series [7] has as its system MOR (guinea pig ileum, GPI). The settings on record: read-out: GPI (μ) IC50; cited from earlier work.
Series [8] deals with T1, MOR. The settings on record: ratio of MOR/DOR/KOR Ki; cited from earlier work.
The test system of series [9] is DOR (mouse vas deferens, MVD). The settings on record: read-out: MVD (δ) IC50; cited from earlier work.
Series [10] concerns MOR (guinea pig ileum, GPI). Description: Guinea pig ileum. Type of series: biochemical.
Series [11] relates to DOR (mouse vas deferens, MVD). Description: Mouse vas deferens. Type of series: biochemical.
For series [12] the following is noted: incubated in sheep blood; cited from earlier work.

“And” between values parts separate entries of the source, which are not always exact repeats. Equal entries are not always repeated. “Also recorded” adds a separate entry of the source. Where two headings read alike, the source gives them in different places. Non-standard residues stand in square brackets, D forms with d. Residues, ends and D or L forms follow the SMILES beside them. Dmt = Cc1cc(O)cc(C)c1C[C@H](N)C(=O)O; dCit = NC(=O)NCCC[C@@H](N)C(=O)O; Nle = CCCC[C@H](N)C(=O)O

Regarding `CCCC[C@H](NC(=O)[C@H](Cc1ccccc1)NC(=O)[C@@H](CCCNC(=N)N)NC(=O)[C@@H](N)Cc1c(C)cc(O)cc1C)C(N)=O` [Peptide 9, H-Dmt-D-Arg-Phe-Nle-NH2] (H-[Dmt][dR]F[Nle]-NH2), the “Antinociceptive effect after i.p. injection, in words” value in the series with CD-1 mice [1] is recorded as “relatively low antinociceptive activity”. On MOR [2], the “Ki ratio μ/δ/κ” value is 1/66/70. Further, in the series with CD-1 mice [3], the “Antinociceptive effect after s.c. administration, in words” value was “no dose-related antinociception; also recorded: failed to reach a 50% effect after s.c. administration of 6 μmol/kg” and the “ED50 (95% confidence limits)” value is more than 6 µmol/kg.
Turning to `CCCC[C@H](NC(=O)[C@H](Cc1ccccc1)NC(=O)[C@@H](CCCNC(N)=O)NC(=O)[C@@H](N)Cc1c(C)cc(O)cc1C)C(N)=O` [Peptide 11, H-Dmt-D-Cit-Phe-Nle-NH2] (H-[Dmt][dCit]F[Nle]-NH2), the “Ki ratio μ/δ/κ” value at MOR [2] was 1/5/125.
Same read-out and setting: then `CCCC[C@@H](C(N)=O)N1Cc2ccccc2C[C@H](NC(=O)[C@@H](CCCNC(=N)N)NC(=O)[C@@H](N)Cc2c(C)cc(O)cc2C)C1=O` [Peptide 17, H-Dmt-D-Arg-Aba-Nle-NH2], with 1/17/3.
In the case of `Cc1cc(O)cc(C)c1C[C@H](N)C(=O)N[C@H](CCCNC(=N)N)C(=O)N[C@@H](Cc1ccccc1)C(=O)N(C)[C@@H](CCCCN)C(N)=O` [Peptide 12, H-Dmt-D-Arg-Phe-NMeLys-NH2], the Serum levels result in [4] is recorded as “intermediate”. Further, the “Vbr (brain distribution volume)” value in series [5] came to 21.99 ± 2.81 µL/g. Further, in the series on CD-1 mice [1], the “Antinociceptive activity, times higher than the antinociception of morphine” value is 13 - 15 and the “Time of maximum antinociceptive activity post i.p. injection” value lay in the range of 60 to 90 min. In addition, the “Ki ratio μ/δ/κ” value on MOR [2] is 1/1190/216. Further, in the series with CD-1 mice [3], the “Duration of antinociceptive action” value is recorded as more than 7 h; the “Time of peak effect” value was 1 to 4 h and 2 h; the “ED50 (95% confidence limits)” value is reported as 0.13 (0.06-0.30) μmol/kg.
As for endomorphin-1, the “t1/2 in mouse plasma” value in series [6] is 4 to 7 min.
`Cc1cc(O)cc(C)c1C[C@H](N)C(=O)N[C@H](CCCNC(N)=O)C(=O)N[C@@H](Cc1ccccc1)C(=O)N[C@@H](CCCCN)C(N)=O` [Peptide 10, H-Dmt-D-Cit-Phe-Lys-NH2]: in series [4], the Serum levels result is recorded as “intermediate”. In addition, the “Vbr (brain distribution volume)” value in [5] stood at 27.12 ± 3.76 µL/g. For the same compound, the “Time of maximum antinociceptive activity post i.p. injection” value in the series with CD-1 mice [1] is given as 45 min. In addition, the “Ki ratio μ/δ/κ” value at MOR [2] is 1/88/37. In the series on CD-1 mice [3], the “Duration of antinociceptive action” value was in the range of 2 to 3 h, the “Time of peak effect” value came to 1 h and the “ED50 (95% confidence limits)” value was 0.23 (0.10-0.55) μmol/kg.
For the compound `CCCC[C@@H](C(N)=O)N(C)C(=O)[C@H](Cc1ccccc1)NC(=O)[C@@H](CCCNC(=N)N)NC(=O)[C@@H](N)Cc1c(C)cc(O)cc1C` [Peptide 13, H-Dmt-D-Arg-Phe-NMeNle-NH2], the “Ki ratio μ/δ/κ” value on MOR [2] is 1/62/55.
Regarding `Cc1cc(O)cc(C)c1C[C@H](N)C(=O)N[C@H](CCCNC(N)=O)C(=O)N[C@@H](Cc1ccccc1)C(=O)N(C)[C@@H](CCCCN)C(N)=O` [Peptide 14, H-Dmt-D-Cit-Phe-NMeLys-NH2], in series [4], the Serum levels entry was “intermediate”. For the same compound, in series [5], the “Vbr (brain distribution volume)” value worked out at 17.13 ± 2.36 µL/g. Further, in the series with CD-1 mice [1], the “Antinociceptive activity, times higher than the antinociception of morphine” value was 13 - 15 and the “Time of maximum antinociceptive activity post i.p. injection” value fell in the range of 60 to 90 min. In addition, the “Ki ratio μ/δ/κ” value at MOR [2] is recorded as 1/42/12. In addition, in the series with CD-1 mice [3], the “Duration of antinociceptive action” value is 2 to 3 h, the “Time of peak effect” value turned out to be 1 h and the “ED50 (95% confidence limits)” value is listed as 0.16 (0.07-0.36) μmol/kg.
Turning to `Cc1cc(O)cc(C)c1C[C@H](N)C(=O)N[C@H](CCCNC(=N)N)C(=O)N[C@H]1Cc2ccccc2CN(CC(N)=O)C1=O` [Peptide 20, H-Dmt-D-Arg-Aba-Gly-NH2, reference compound], the Serum levels entry in series [4] is given as “intermediate”. Moreover, the “Tissue distribution (percentage of mass-corrected injected dose), in words” value in series [4] ([125I]-peptide, mice, Figure 2) was “higher kidney uptake”. Also, the “Vbr (brain distribution volume)” value in [5] is 24.01 ± 3.41 µL/g. Also, in the series with CD-1 mice [1], the “Antinociceptive effect after i.p. injection, in words” value is “slow and shallow antinociceptive response”. The IC50 in series [7] was 0.32 nM. Besides, the “Ki ratio μ/δ/κ” value at MOR [8] is given as 1/4/787. For the same compound, the half-maximal inhibitory concentration (IC50) in series [9] was 0.42 nM. Also, in the series on CD-1 mice [3], the “Duration of antinociceptive action” value lay within 6 to 7 h, the “Time of peak effect” value is on record as 1 h and the “ED50 (95% confidence limits)” value is recorded as 0.47 (0.18-1.2) μmol/kg.
Regarding `CCCC[C@@H](C(N)=O)N1Cc2ccccc2C[C@H](NC(=O)[C@@H](CCCNC(N)=O)NC(=O)[C@@H](N)Cc2c(C)cc(O)cc2C)C1=O` [Peptide 19, H-Dmt-D-Cit-Aba-Nle-NH2], the “Ki ratio μ/δ/κ” value on MOR [2] is given as 1/3/12. The “GPI (μ) IC35” value in series [10] (IC35 given instead of IC50) is listed as 0.78 (IC35) nM. Moreover, in [10] (in words), the MOR functional profile result is “MOR partial agonist”. Besides, in [11] (in words), the DOR functional profile result is given as “DOR full agonist”.
Turning to `Cc1cc(O)cc(C)c1C[C@H](N)C(=O)N[C@H](CCCNC(=N)N)C(=O)N[C@@H](Cc1ccccc1)C(=O)N[C@@H](CCCCN)C(N)=O` [Peptide 1, H-Dmt-D-Arg-Phe-Lys-NH2, reference compound], in series [4], the Serum levels entry is recorded as “highest”. Besides, the “t1/2 in sheep blood” value in [12] was 108 min. In addition, the “Vbr (brain distribution volume)” value in series [5] stood at 19.25 ± 1.02 µL/g. Also, the “Time of maximum antinociceptive activity post i.p. injection” value in the series on CD-1 mice [1] is given as 60 min. In addition, in the series with CD-1 mice [3], the “Duration of antinociceptive action” value was 6 to 7 h, the “Time of peak effect” value is reported as 2 h and the “ED50 (95% confidence limits)” value is 0.15 (0.07-0.32) μmol/kg. In addition, the “Duration of antinociceptive action” value in the series on CD-1 mice [3] (listed as [Dmt^1]-DALDA) is on record as more than 7 h.
As for `CCCC[C@H](NC(=O)[C@H](Cc1ccccc1)NC(=O)[C@@H](CCCN=C(N)N)NC(=O)[C@@H](N)Cc1c(C)cc(O)cc1C)C(N)=O` [Peptide 9, H-Dmt-D-Arg-Phe-Nle-NH2] (H-[Dmt][dR]F[Nle]-NH2), the Serum levels entry in [4] was “lowest”. In series [5], the “Vbr (brain distribution volume)” value was 27.43 ± 4.80 µL/g.
On to `CN1CC[C@]23c4c5ccc(O)c4O[C@H]2[C@@H](O)C=C[C@H]3[C@H]1C5` [Morphine, reference compound], for which the “Relative potency to Morphine” value with CD-1 mice [3] (from ED50) stood at 1.
`C[C@@H](NC(=O)[C@@H](N)Cc1ccc(O)cc1)C(=O)N[C@@H](Cc1ccccc1)C(=O)NCC(=O)N[C@@H](Cc1ccc(O)cc1)C(=O)N1CCC[C@H]1C(=O)N[C@@H](CO)C(N)=O` [dermorphin, Tyr-D-Ala-Phe-Gly-Tyr-Pro-Ser-NH2, reference compound]: the “mean influx transfer constant (mean Kin)” value in [5] (I-125 labelled control, over 15 minutes for dermorphin) is 0.173 ± 0.137 µL/g/min. In addition, the “Antinociceptive effect after i.p. injection, in words” value in the series on CD-1 mice [1] is “inability of dermorphin to induce a significant antinociceptive effect”.
In the case of `Cc1cc(O)cc(C)c1C[C@H](N)C(=O)N[C@H](CCCNC(=N)N)C(=O)N[C@H]1Cc2ccccc2CN([C@@H](CCCCN)C(N)=O)C1=O` [Peptide 16, H-Dmt-D-Arg-Aba-Lys-NH2], in series [11] (IC25 given instead of IC50), the “MVD (δ) IC25” value is reported as 64 (IC25) nM.
Consider endomorphin-2, for which the “t1/2 in mouse plasma” value in series [6] is 4 to 7 min.

The values are drawn from paper PMC3523097 (Journal of medicinal chemistry, 2012).
